How the values were obtained:
Type in all cases: in vivo
[1] = test system: field corn (Zea mays L., var. Dekalb 535, CORN); experiment: Greenhouse herbicide screen, post-emerge application, crop damage rating; conditions: POST emergent, 14 days after application, scale 0-100
Outline: (§1)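 Post-emergence units received spray at the 2–3 leaf stage and were bottom-watered, whereas pre-emergence units were sprayed one day after sowing and top-watered to incorporate. Application rates spanned 15–1000 g ai/ha in acetone at 187 l/ha. Scoring used a 0–100 damage scale at 14 days.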

[2] = test system: upland rice (Oryza sp., var.Cocodrie, RICE); experiment: as above; conditions: POST emergent, 14 days after application, scale 0-100
Outline: as §1

[3] = test system: field corn (Zea mays L., var. Dekalb 535, CORN); experiment: Greenhouse herbicide screen, pre-emerge application, crop damage rating; conditions: PRE emergent, 14 days after application, rating scale 0-100
Outline: as §1

[4] = test system: upland rice (Oryza sp., var.Cocodrie, RICE); experiment: as above; conditions: PRE emergent, 14 days after application, rating scale 0-100
Outline: as §1

[5] = test system: redroot pigweed (Amaranthus retrofiexus, AMARE); experiment: Greenhouse herbicide screen, pre-emerge application, phytotoxicity rating; conditions: PRE emergent, 14 days after application, rating scale 0-100
Outline: as §1

[6] = test system: sicklepod (Cassia obtusifolia, CASOB); experiment: as above; conditions: PRE emergent, 14 days after application, rating scale 0-100
Outline: as §1

[7] = test system: johnsongrass (Sorghum halepense, SORHA); experiment: as above; conditions: PRE emergent, 14 days after application, rating scale 0-100
Outline: as §1

[8] = test system: velvetleaf (Abutilon theophrasti, ABUTH); experiment: as above; conditions: PRE emergent, 14 days after application, rating scale 0-100
Outline: as §1

[9] = test system: large crabgrass (Digitaria sanguinalis, DIGSA); experiment: as above; conditions: PRE emergent, 14 days after application, rating scale 0-100
Outline: as §1

[10] = test system: cocklebur (Xanthium strumarium, XANST); experiment: as above; conditions: PRE emergent, 14 days after application, rating scale 0-100
Outline: as §1

[11] = test system: ivyleaf morningglory (Ipomoea hederacea, IPOHE); experiment: as above; conditions: PRE emergent, 14 days after application, rating scale 0-100
Outline: as §1

[12] = test system: barnyardgrass (Echinochloa crus-galli, ECHCG); experiment: as above; conditions: PRE emergent, 14 days after application, rating scale 0-100
Outline: as §1

[13] = test system: lambsquarters (Chenopodium album, CHEAL); experiment: as above; conditions: PRE emergent, 14 days after application, rating scale 0-100
Outline: as §1

[14] = test system: common ragweed (Ambrosia artemisiifolia L., AMBEL); experiment: as above; conditions: PRE emergent, 14 days after application, rating scale 0-100
Outline: as §1

[15] = test system: green foxtail (Setaria viridis, SETVI); experiment: as above; conditions: PRE emergent, 14 days after application, rating scale 0-100
Outline: as §1

[16] = test system: redroot pigweed (Amaranthus retrofiexus, AMARE); experiment: Greenhouse herbicide screen, post-emerge application, phytotoxicity rating; conditions: POST emergent, 14 days after application
Outline: as §1

[17] = test system: sicklepod (Cassia obtusifolia, CASOB); experiment: as above; conditions: POST emergent, 14 days after application, scale 0-100
Outline: as §1

[18] = test system: johnsongrass (Sorghum halepense, SORHA); experiment: as above; conditions: POST emergent, 14 days after application, scale 0-100
Outline: as §1

[19] = test system: velvetleaf (Abutilon theophrasti, ABUTH); experiment: as above; conditions: POST emergent, 14 days after application, scale 0-100
Outline: as §1

[20] = test system: large crabgrass (Digitaria sanguinalis, DIGSA); experiment: as above; conditions: POST emergent, 14 days after application, scale 0-100
Outline: as §1

[21] = test system: cocklebur (Xanthium strumarium, XANST); experiment: as above; conditions: POST emergent, 14 days after application, scale 0-100
Outline: as §1

[22] = test system: ivyleaf morningglory (Ipomoea hederacea, IPOHE); experiment: as above; conditions: POST emergent, 14 days after application, scale 0-100
Outline: as §1

[23] = test system: barnyardgrass (Echinochloa crus-galli, ECHCG); experiment: as above; conditions: POST emergent, 14 days after application, scale 0-100
Outline: as §1

[24] = test system: lambsquarters (Chenopodium album, CHEAL); experiment: as above; conditions: POST emergent, 14 days after application, scale 0-100
Outline: as §1

[25] = test system: common ragweed (Ambrosia artemisiifolia L., AMBEL); experiment: as above; conditions: POST emergent, 14 days after application, scale 0-100
Outline: as §1

[26] = test system: green foxtail (Setaria viridis, SETVI); experiment: as above; conditions: POST emergent, 14 days after application, scale 0-100
Outline: as §1

[27] = 63 g ai/ha, scale 0-100 (0 no damage, 100 complete death)

SMILES: CC1CCCC(C)N1NC(=O)c1cc(-n2c(=O)cc(C(F)(F)F)n(C)c2=O)c(F)cc1Cl (centres unmarked) [Compound 1-16]
- crop damage rating CORN ([1]; 63 g ai/ha): 100
- crop damage rating CORN ([1]; 250 g ai/ha): 100
- crop damage rating RICE ([2]; 63 g ai/ha): 45
- crop damage rating RICE ([2]; 250 g ai/ha): 98
- crop damage rating CORN ([3]; 63 g ai/ha): 100
- crop damage rating CORN ([3]; 250 g ai/ha): 100
- crop damage rating RICE ([4]; 63 g ai/ha): 45
- crop damage rating RICE ([4]; 250 g ai/ha): 98
- phytotoxicity rating AMARE ([5]; 63 g ai/ha): 100
- phytotoxicity rating AMARE ([5]; 250 g ai/ha): 100
- phytotoxicity rating CASOB ([6]; 63 g ai/ha): 98
- phytotoxicity rating CASOB ([6]; 250 g ai/ha): 99
- phytotoxicity rating SORHA ([7]; 63 g ai/ha): 75
- phytotoxicity rating SORHA ([7]; 250 g ai/ha): 99
- phytotoxicity rating ABUTH ([8]; 63 g ai/ha): 100
- phytotoxicity rating ABUTH ([8]; 250 g ai/ha): 100
- phytotoxicity rating DIGSA ([9]; 63 g ai/ha): 30
- phytotoxicity rating DIGSA ([9]; 250 g ai/ha): 98
- phytotoxicity rating XANST ([10]; 63 g ai/ha): 75
- phytotoxicity rating XANST ([10]; 250 g ai/ha): 100
- phytotoxicity rating IPOHE ([11]; 63 g ai/ha): 100
- phytotoxicity rating IPOHE ([11]; 250 g ai/ha): 100
- phytotoxicity rating ECHCG ([12]; 63 g ai/ha): 35
- phytotoxicity rating ECHCG ([12]; 250 g ai/ha): 98
- phytotoxicity rating CHEAL ([13]; 63 g ai/ha): 100
- phytotoxicity rating CHEAL ([13]; 250 g ai/ha): 100
- phytotoxicity rating AMBEL ([14]; 63 g ai/ha): 99
- phytotoxicity rating AMBEL ([14]; 250 g ai/ha): 99
- phytotoxicity rating SETVI ([15]; 63 g ai/ha): 90
- phytotoxicity rating SETVI ([15]; 250 g ai/ha): 99
- phytotoxicity rating AMARE [16, 27]: 100
- phytotoxicity rating AMARE ([16]; 250 g ai/ha, scale 0-100): 100
- phytotoxicity rating CASOB ([17]; 63 g ai/ha): 98
- phytotoxicity rating CASOB ([17]; 250 g ai/ha): 99
- phytotoxicity rating SORHA ([18]; 63 g ai/ha): 75
- phytotoxicity rating SORHA ([18]; 250 g ai/ha): 99
- phytotoxicity rating ABUTH ([19]; 63 g ai/ha): 100
- phytotoxicity rating ABUTH ([19]; 250 g ai/ha): 100
- phytotoxicity rating DIGSA ([20]; 63 g ai/ha): 30
- phytotoxicity rating DIGSA ([20]; 250 g ai/ha): 98
- phytotoxicity rating XANST ([21]; 63 g ai/ha): 75
- phytotoxicity rating XANST ([21]; 250 g ai/ha): 100
- phytotoxicity rating IPOHE ([22]; 63 g ai/ha): 100
- phytotoxicity rating IPOHE ([22]; 250 g ai/ha): 100
- phytotoxicity rating ECHCO ([23]; 63 g ai/ha): 35
- phytotoxicity rating ECHCO ([23]; 250 g ai/ha): 98
- phytotoxicity rating CHEAL ([24]; 63 g ai/ha): 100
- phytotoxicity rating CHEAL ([24]; 250 g ai/ha): 100
- phytotoxicity rating AMBEL ([25]; 63 g ai/ha): 99
- phytotoxicity rating AMBEL ([25]; 250 g ai/ha): 99
- phytotoxicity rating SETVI ([26]; 63 g ai/ha): 90
- phytotoxicity rating SETVI ([26]; 250 g ai/ha): 99

SMILES: CC(=O)OC(=NN(C)C)c1cc(-n2c(=O)cc(C(F)(F)F)n(C)c2=O)ccc1Cl [Compound 4-4]
- crop damage rating CORN ([1]; 63 g ai/ha): 25
- crop damage rating CORN ([1]; 250 g ai/ha): 90
- crop damage rating RICE ([2]; 63 g ai/ha): 10
- crop damage rating RICE ([2]; 250 g ai/ha): 55
- crop damage rating CORN ([3]; 63 g ai/ha): 25
- crop damage rating CORN ([3]; 250 g ai/ha): 90
- crop damage rating RICE ([4]; 63 g ai/ha): 10
- crop damage rating RICE ([4]; 250 g ai/ha): 55
- phytotoxicity rating AMARE ([5]; 63 g ai/ha): 100
- phytotoxicity rating AMARE ([5]; 250 g ai/ha): 100
- phytotoxicity rating CASOB ([6]; 63 g ai/ha): 65
- phytotoxicity rating CASOB ([6]; 250 g ai/ha): 98
- phytotoxicity rating SORHA ([7]; 63 g ai/ha): 60
- phytotoxicity rating SORHA ([7]; 250 g ai/ha): 90
- phytotoxicity rating ABUTH ([8]; 63 g ai/ha): 100
- phytotoxicity rating ABUTH ([8]; 250 g ai/ha): 100
- phytotoxicity rating DIGSA ([9]; 63 g ai/ha): 98
- phytotoxicity rating DIGSA ([9]; 250 g ai/ha): 100
- phytotoxicity rating XANST ([10]; 63 g ai/ha): 0
- phytotoxicity rating XANST ([10]; 250 g ai/ha): 60
- phytotoxicity rating IPOHE ([11]; 63 g ai/ha): 100
- phytotoxicity rating IPOHE ([11]; 250 g ai/ha): 100
- phytotoxicity rating ECHCG ([12]; 63 g ai/ha): 30
- phytotoxicity rating ECHCG ([12]; 250 g ai/ha): 90
- phytotoxicity rating CHEAL ([13]; 63 g ai/ha): 100
- phytotoxicity rating CHEAL ([13]; 250 g ai/ha): 100
- phytotoxicity rating AMBEL ([14]; 63 g ai/ha): 75
- phytotoxicity rating AMBEL ([14]; 250 g ai/ha): 100
- phytotoxicity rating SETVI ([15]; 63 g ai/ha): 50
- phytotoxicity rating SETVI ([15]; 250 g ai/ha): 90
- phytotoxicity rating AMARE [16, 27]: 100
- phytotoxicity rating AMARE ([16]; 250 g ai/ha, scale 0-100): 100
- phytotoxicity rating CASOB ([17]; 63 g ai/ha): 65
- phytotoxicity rating CASOB ([17]; 250 g ai/ha): 98
- phytotoxicity rating SORHA ([18]; 63 g ai/ha): 60
- phytotoxicity rating SORHA ([18]; 250 g ai/ha): 90
- phytotoxicity rating ABUTH ([19]; 63 g ai/ha): 100
- phytotoxicity rating ABUTH ([19]; 250 g ai/ha): 100
- phytotoxicity rating DIGSA ([20]; 63 g ai/ha): 98
- phytotoxicity rating DIGSA ([20]; 250 g ai/ha): 100
- phytotoxicity rating XANST ([21]; 63 g ai/ha): 0
- phytotoxicity rating XANST ([21]; 250 g ai/ha): 60
- phytotoxicity rating IPOHE ([22]; 63 g ai/ha): 100
- phytotoxicity rating IPOHE ([22]; 250 g ai/ha): 100
- phytotoxicity rating ECHCO ([23]; 63 g ai/ha): 30
- phytotoxicity rating ECHCO ([23]; 250 g ai/ha): 90
- phytotoxicity rating CHEAL ([24]; 63 g ai/ha): 100
- phytotoxicity rating CHEAL ([24]; 250 g ai/ha): 100
- phytotoxicity rating AMBEL ([25]; 63 g ai/ha): 75
- phytotoxicity rating AMBEL ([25]; 250 g ai/ha): 100
- phytotoxicity rating SETVI ([26]; 63 g ai/ha): 50
- phytotoxicity rating SETVI ([26]; 250 g ai/ha): 90

Reference: patent US6770597B2, “Benzohydrazide derivatives as herbicides and desiccant compositions containing them” (Ishihara Sangyo Kaisha, Ltd., priority 2002, dated 2004)
